Measurements taken from ChEMBL document CHEMBL1159070, “Synthesis and disulfide bond connectivity-activity studies of a kalata B1-inspired cyclopeptide against dengue NS2B-NS3 protease” (Bioorg Med Chem, 2010).
The source made the active and inactive calls. No cut-off for these calls is given here.

Columns and labels:
[1] = (§1) Inhibition of Dengue virus 2 recombinant NS2B/3 protease expressed in Escherichia coli BL21(DE3) assessed as Dabcyl-KGRRSSKL-Edans substrate cleavage by fluorimetry; design: species or system dengue virus type 2
[2] = system: dengue virus type 2; experiment: as §1

**Q.** What does the source list for `CC(C)C[C@@H]1NC(=O)CNC(=O)[C@H](CCCNC(=N)N)NC(=O)[C@H](CCCNC(=N)N)NC(=O)[C@H]([C@@H](C)O)NC(=O)[C@@H]2CSSC[C@H](NC(=O)CNC(=O)[C@@H]3CCCN3C(=O)[C@H]([C@@H](C)O)NC(=O)[C@@H](N)CC(=O)NC(=O)[C@@H]3CSSC[C@H](NC(=O)[C@H](C(C)C)NC(=O)[C@@H]4CCCN4C1=O)C(=O)NCC(=O)N[C@@H](CO)C(=O)N[C@@H](CCC(=O)O)C(=O)N[C@@H](CCC(=O)O)C(=O)N[C@@H](CO)C(=O)N[C@@H](CCCNC(=N)N)C(=O)N[C@@H](CCCNC(=N)N)C(=O)NCC(=O)N3)C(=O)N[C@@H](CCCNC(=N)N)C(=O)N[C@@H](CCCNC(=N)N)C(=O)N[C@@H](CO)C(=O)N[C@@H](Cc1c[nH]c3ccccc13)C(=O)N1CCC[C@H]1C(=O)N[C@@H](C(C)C)C(=O)N2`?
**A.** IC50 [1]: 4.3 µM; Ki [1]: 1.39 µM

**Q.** Which Activity [2] does the source give for `CC(C)C[C@@H]1NC(=O)CNC(=O)[C@H](CCCNC(=N)N)NC(=O)[C@H](CCCNC(=N)N)NC(=O)[C@H]([C@@H](C)O)NC(=O)[C@H](CS)NC(=O)[C@H](C(C)C)NC(=O)[C@@H]2CCCN2C(=O)[C@H](Cc2c[nH]c3ccccc23)NC(=O)[C@H](CO)NC(=O)[C@H](CCCNC(=N)N)NC(=O)[C@H](CCCNC(=N)N)NC(=O)[C@H](CS)NC(=O)CNC(=O)[C@H]2CCCN2C(=O)[C@H]([C@@H](C)O)NC(=O)[C@@H](N)CC(=O)NC(=O)[C@H](CS)NC(=O)CNC(=O)[C@H](CCCNC(=N)N)NC(=O)[C@H](CCCNC(=N)N)NC(=O)[C@H](CO)NC(=O)[C@H](CCC(=O)O)NC(=O)[C@H](CCC(=O)O)NC(=O)[C@H](CO)NC(=O)CNC(=O)[C@H](CS)NC(=O)[C@H](C(C)C)NC(=O)[C@@H]2CCCN2C1=O` here?
**A.** Its Activity is “Active”.

**Q.** For `CC(C)C[C@@H]1NC(=O)CNC(=O)[C@H](CC(N)=O)NC(=O)[C@H](CCCNC(=N)N)NC(=O)[C@H]([C@@H](C)O)NC(=O)[C@H](CS)NC(=O)[C@H](C(C)C)NC(=O)[C@@H]2CCCN2C(=O)[C@H](CCC(=O)O)NC(=O)[C@H](CO)NC(=O)[C@H](CS)NC(=O)[C@H]([C@@H](C)O)NC(=O)[C@H](CS)NC(=O)CNC(=O)[C@@H]2CCCN2C(=O)[C@H]([C@@H](C)O)NC(=O)[C@H](CC(N)=O)NC(=O)[C@H](CS)NC(=O)[C@H]([C@@H](C)O)NC(=O)CNC(=O)CNC(=O)[C@H](C(C)C)NC(=O)[C@H](CS)NC(=O)[C@H]([C@@H](C)O)NC(=O)[C@H](CCC(=O)O)NC(=O)CNC(=O)[C@H](CS)NC(=O)[C@H](C(C)C)NC(=O)[C@@H]2CCCN2C1=O`, which Activity [2] is on record?
**A.** The Activity was “inactive”.

**Q.** For `CC(C)C[C@@H]1NC(=O)CNC(=O)[C@H](CCCNC(=N)N)NC(=O)[C@H](CCCNC(=N)N)NC(=O)[C@H]([C@@H](C)O)NC(=O)[C@@H]2CSSC[C@H](NC(=O)[C@H](C(C)C)NC(=O)[C@@H]3CCCN3C1=O)C(=O)NCC(=O)N[C@@H](CO)C(=O)N[C@@H](CCC(=O)O)C(=O)N[C@@H](CCC(=O)O)C(=O)N[C@@H](CO)C(=O)N[C@@H](CCCNC(=N)N)C(=O)N[C@@H](CCCNC(=N)N)C(=O)NCC(=O)N[C@H]1CSSC[C@H](NC(=O)CNC(=O)[C@@H]3CCCN3C(=O)[C@H]([C@@H](C)O)NC(=O)[C@@H](N)CC(=O)NC1=O)C(=O)N[C@@H](CCCNC(=N)N)C(=O)N[C@@H](CCCNC(=N)N)C(=O)N[C@@H](CO)C(=O)N[C@@H](Cc1c[nH]c3ccccc13)C(=O)N1CCC[C@H]1C(=O)N[C@@H](C(C)C)C(=O)N2`, which IC50 [1] is on record?
**A.** Its IC50 is 9.3 µM.

**Q.** And the Ki [1]?
**A.** The Ki was 3.03 µM.

**Q.** For `CC(C)C[C@H](NC(=O)CN)C(=O)N1CCC[C@H]1C(=O)N[C@H](C(=O)N[C@@H](CS)C(=O)NCC(=O)N[C@@H](CCC(=O)O)C(=O)N[C@H](C(=O)N[C@@H](CS)C(=O)N[C@H](C(=O)NCC(=O)NCC(=O)N[C@H](C(=O)N[C@@H](CS)C(=O)N[C@@H](CC(N)=O)C(=O)N[C@H](C(=O)N1CCC[C@H]1C(=O)NCC(=O)N[C@@H](CS)C(=O)N[C@H](C(=O)N[C@@H](CS)C(=O)N[C@@H](CO)C(=O)N[C@@H](CCC(=O)O)C(=O)N1CCC[C@H]1C(=O)N[C@H](C(=O)N[C@@H](CS)C(=O)N[C@H](C(=O)N[C@@H](CCCNC(=N)N)C(=O)N[C@@H](CC(N)=O)C(=O)O)[C@@H](C)O)C(C)C)[C@@H](C)O)[C@@H](C)O)[C@@H](C)O)C(C)C)[C@@H](C)O)C(C)C`, which Activity [2] is on record?
**A.** The Activity was “inactive”.
